How the values were obtained:
[1] = tested on: B. subtilis 168; assay: Bliss interaction score (quartile over a dose matrix) (fitness difference); higher = more antagonism (negative = synergy)
How it was run: (§1)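 Quartiles summarise the Bliss score over technical, biological and donor/recipient replicates, where the score is observed minus expected fitness under a product model. Expected fitness uses single-drug values inferred from combination data. Fitness is OD595 at entry into stationary phase over the plate's robust no-drug mean, capped at 1.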

[2] = tested on: S. aureus DSM 20231; assay: as above
How it was run: as §1

[3] = tested on: S. aureus Newman; assay: as above
How it was run: as §1

[4] = tested on: S. pneumoniae D39V; assay: as above
How it was run: as §1

[5] = tested on: B. subtilis 168; assay: fitness (endpoint OD595 vs no drug) (fraction); higher = more growth; conditions: one replicate
How it was run: (§2)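 Fitness compares growth at the stationary-phase transition with the robust mean of no-drug control wells, as a ratio of optical densities. The ratio is capped at 1. Wells of 384-well plates held 30 µl, or 55 µl for S. pneumoniae, inoculated at OD595 0.01. Readings at OD595 every 30 min for 14 h at 37 °C were corrected against the first reading.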

[6] = tested on: S. aureus DSM 20231; assay: as above
How it was run: as §2

[7] = tested on: S. aureus Newman; assay: as above
How it was run: as §2

[8] = tested on: S. pneumoniae D39V; assay: as above
How it was run: as §2
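For Bliss interaction score (quartile over a dose matrix) in this document: first quartile when negative (synergy) and third quartile when positive (antagonism).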

Cn1c2cccc(=O)c-2nc2ccccc21 [Pyocyanin] + CN(N=O)C(=O)N[C@@H](C=O)[C@@H](O)[C@H](O)[C@H](O)CO [Streptozotocin]
Conditions | Bliss interaction score
[1] | -0.0597
[2] | 0.0692
[3] | -0.0417
[4] | -0.0715

fitness
Conditions | partner 0.15 µg/mL | partner 0.3 µg/mL | partner 0.6 µg/mL | partner 1.2 µg/mL | partner 2.4 µg/mL | partner 4.8 µg/mL
[5], first compound 1.25 µg/mL | 0.99 | 0.918 | 0.96 | – | – | –
[5], first compound 2.5 µg/mL | 0.777 | 0.903 | 0.873 | – | – | –
[5], first compound 5 µg/mL | 0.687 | 0.729 | 0.777 | – | – | –
[6], first compound 1.25 µg/mL | 0.836 | 0.852 | 0.711 | – | – | –
[6], first compound 2.5 µg/mL | 0.803 | 0.772 | 0.676 | – | – | –
[6], first compound 5 µg/mL | 0.626 | 0.617 | 0.517 | – | – | –
[7], first compound 1.25 µg/mL | 0.788 | 0.633 | 0.494 | – | – | –
[7], first compound 2.5 µg/mL | 0.695 | 0.591 | 0.385 | – | – | –
[7], first compound 5 µg/mL | 0.265 | 0.249 | 0.167 | – | – | –
[8], first compound 0.325 µg/mL | – | – | – | 0.951 | 0.912 | 0.928
[8], first compound 0.65 µg/mL | – | – | – | 0.973 | 0.964 | 0.965

[8], first compound 1.3 µg/mL, one replicate
Conditions | fitness
partner 1.2 µg/mL | 0.626
partner 2.4 µg/mL | 0.683
partner 4.8 µg/mL | 0.783

C[n+]1ccc(-c2cc[n+](C)cc2)cc1 [Paraquat] + CN(N=O)C(=O)N[C@@H](C=O)[C@@H](O)[C@H](O)[C@H](O)CO [Streptozotocin]
Conditions | Bliss interaction score
[1] | 0.0356
[2] | -0.0445
[3] | -0.0522
[4] | 0.0357

fitness
Conditions | first compound 1.25 µg/mL | first compound 1.5 µg/mL | first compound 2.5 µg/mL | first compound 3 µg/mL | first compound 5 µg/mL | first compound 6 µg/mL
[5], partner 0.15 µg/mL | ≥ 1 | – | ≥ 1 | – | 0.845 | –
[5], partner 0.3 µg/mL | ≥ 1 | – | 0.964 | – | 0.851 | –
[5], partner 0.6 µg/mL | 0.945 | – | 0.956 | – | 0.776 | –
[6], partner 0.15 µg/mL | 0.865 | – | 0.835 | – | 0.774 | –
[6], partner 0.3 µg/mL | 0.795 | – | 0.842 | – | 0.758 | –
[6], partner 0.6 µg/mL | 0.679 | – | 0.689 | – | 0.636 | –
[7], partner 0.15 µg/mL | 0.781 | – | 0.769 | – | 0.727 | –
[7], partner 0.3 µg/mL | 0.66 | – | 0.654 | – | 0.637 | –
[7], partner 0.6 µg/mL | 0.523 | – | 0.536 | – | 0.508 | –
[8], partner 1.2 µg/mL | – | 0.989 | – | 0.983 | – | 0.969
[8], partner 2.4 µg/mL | – | 0.97 | – | 0.926 | – | 0.977
[8], partner 4.8 µg/mL | – | 0.944 | – | 0.955 | – | 0.933

Cc1onc(-c2ccccc2)c1C(=O)N[C@@H]1C(=O)N2[C@@H]1SC(C)(C)[C@@H]2C(=O)O [Oxacillin] + CN(N=O)C(=O)N[C@@H](C=O)[C@@H](O)[C@H](O)[C@H](O)CO [Streptozotocin]
Conditions | Bliss interaction score
[1] | 0.0537
[2] | -0.0548
[3] | -0.0656
[4] | -0.0748

fitness
Conditions | partner 0.15 µg/mL | partner 0.3 µg/mL | partner 0.6 µg/mL | partner 1.2 µg/mL | partner 2.4 µg/mL | partner 4.8 µg/mL
[5], first compound 0.002 µg/mL | ≥ 1 | 0.98 | 0.998 | – | – | –
[5], first compound 0.004 µg/mL | ≥ 1 | ≥ 1 | ≥ 1 | – | – | –
[5], first compound 0.008 µg/mL | 0.946 | 0.983 | 0.882 | – | – | –
[5], first compound 0.075 µg/mL | 0.593 | 0.377 | 0.593 | – | – | –
[5], first compound 0.15 µg/mL | 0.0403 | 0.0243 | 0.0217 | – | – | –
[5], first compound 0.3 µg/mL | 0.0476 | 0.0338 | 0.0158 | – | – | –
[6], first compound 0.0156 µg/mL | 0.693 | 0.635 | 0.549 | – | – | –
[6], first compound 0.0312 µg/mL | 0.596 | 0.582 | 0.494 | – | – | –
[6], first compound 0.0625 µg/mL | 0.462 | 0.493 | 0.396 | – | – | –
[7], first compound 0.0156 µg/mL | 0.663 | 0.593 | 0.454 | – | – | –
[7], first compound 0.0312 µg/mL | 0.613 | 0.57 | 0.387 | – | – | –
[7], first compound 0.0625 µg/mL | 0.538 | 0.466 | 0.228 | – | – | –
[8], first compound 0.01 µg/mL | – | – | – | 0.941 | 0.977 | 0.927
[8], first compound 0.02 µg/mL | – | – | – | 0.889 | 0.873 | 0.866
[8], first compound 0.04 µg/mL | – | – | – | 0.243 | 0.245 | 0.212

Source: the supplement of paper PMC10627819
